According to patent US20230372433A1, “NANOPARTICLE FOR ANTI-CANCER PEPTIDES AND USES THEREOF” (KING'S COLLEGE LONDON, priority 2020, published 2023):

How the values were obtained:
[1] = system: HMLER (human breast cancer bulk cell); test: MTT cytotoxicity assay, HMLER; format: cell-based; settings: 72 hr, MTT; read-out: IC50 HMLER
[2] = Tryptophan fluorescent binding assay, POPC vesicles; settings: 50 μM peptide, PBS pH 7.4
Description: (§1) In brief, 50 μM peptides were fixed and incubated with titrated POPC vesicles (black) or 3POPC/1POPG vesicles (grey) at concentrations of 0, 12.5, 25, 50, 100, 250, 500, 1000, 2500, and 5000 μM in phosphate buffered saline (1X, pH 7.4). The lipid concentration that causes 50% peptide binding was determined using a tryptophan fluorescent binding assay and the values are shown as lipid per peptide.
(§2) The lipids 1-palmitoyl-2-oleoyl-sn-glycero-3-phosphocholine (POPC), 1-palmitoyl-2-oleoyl-snglycero-3-phospho-(1′-rac-glycerol) (POPG) were purchased from Avanti Polar Lipids and dissolved in chloroform. Large unilamellar vesicles (LUVs) were produced by extrusion through 100 nm pore filter using an extruder and filters purchased from Avanti Polar Lipids.
(§3) Peptides (50 μM) and POPC/POPG LUVs (600 μM) were prepared in 10 mM phosphate buffer (pH 7.0). The solutions were incubated and measured after 60 minutes. Excitation was fixed at 280 nm (slit 9 nm) and emission was collected from 300 to 450 nm (slit 9 nm). The spectra were recorded using a Synergy H1 Hybrid Multi-Mode Reader (FIG. 3A) and Cytation™ 5 Cell Imaging Multi-Mode Reader (FIG. 2) from BioTek and were averaged over 3 scans.
(§4) Table 3 illustrates the lipid concentration-induced 50% peptide binding onto a liposome. 50 μM peptide was fixed and incubated with titrated lipid (POPC vesicles or 3POPC/1POPG vesicles) at concentrations of 0, 12.5, 25, 50, 100, 250, 500, 1000, 2500, and 5000 μM in phosphate buffered saline (1X, pH 7.4). The lipid concentration that causes 50% peptide binding was determined using tryptophan fluorescent binding assay and the values are shown as lipid per peptide. IN-terminus is free, C-terminus: —W—NH2.

[3] = system: MCF-10A (human breast epithelial cell); test: cells; settings: read-out: IC50 MCF-10A; 72 hr, MTT
Source text: HMLER (human mammary endothelial cancer cells), HMLER-shEcad (human mammary endothelial cancer stem cells), and MCF-10A (healthy human mammary endothelial) cells were maintained in Mammary Epithelial Cell Growth Medium (MEGM) with supplements and growth factors: bovine pituitary extract (BPE), hydrocortisone, human epidermal growth factor (hEGF), insulin, and gentamicin/amphotericin-B. HEK293T (human embryonic kidney cell), and U2OS (homo sapiens bone osteosarcoma) cells were maintained in Dulbecco's Modified Eagle's Medium (DMEM) with a final concentration of 10% fetal bovine serum. The cells were grown in T75 flask at 310 K in a humidified atmosphere containing 5% CO2.
The colourimetric MTT (3-(4,5-dimethylthiazol-2-yl)-2,5-diphenyltetrazolium bromide) assay was used to determine the toxicity of the anti-cancer peptides and conventional anti-cancer drugs. 5×10^3 cells were seeded in each well of a 96-well microplate. The cells were incubated overnight. Elevated concentrations of the compounds (0, 0.1, 0.2, 0.4, 0.8, 1.6, 3.1, 6.3, 12.5, 25, 50 and 100 μM) were added and incubated for 72 hr with a total volume 200 μL. The stock solutions of the compounds were prepared as 5 mM solutions in DMSO and diluted using media or in pure water. The final concentration of DMSO in each well was either 0.5% or 0% and this amount was present in the untreated control. After 72 hr, 20 μL of a 4 mg/mL solution of MTT in PBS was added to each well, and the plate was incubated for an additional 4 hr. The MEGM/MTT mixture was aspirated and 100 μL of DMSO was added to dissolve the resulting purple formazan crystals. The absorbance of the solutions in each well was read at 550 nm wavelength. Absorbance values were normalized to either DMSO-containing or non DMSO-containing control wells and plotted as concentration of test compound versus % cell viability. ICso values were interpolated from the resulting dose dependent curves.
The peptides were screened against several different human cell lines and their cytotoxicity were determined. Cell lines utilised include MCF-10A (human breast epithelial cell), HMLER (human breast cancer bulk cell), HMLER-shEcad (human breast cancer stem cell), HEK293T (human embryonic kidney cell), and U2OS (human bone osteosarcoma).

[4] = Tryptophan fluorescent binding assay, 3POPC/1POPG vesicles; settings: 50 μM peptide, PBS pH 7.4
Description: as §1, §2, §3, §4

[5] = system: HMLER-shEcad (human breast cancer stem cell); test: MTT cytotoxicity assay, HMLER-shEcad; format: cell-based; settings: 72 hr, MTT; read-out: IC50 HMLER-shEcad
[6] = ANTS/DPX liposome leakage assay, 3POPC/1POPG vesicles; format: biochemical; settings: 0.5 mM vesicles
Description: (§5) In brief, 0.5 mM POPC vesicles (grey) or POPC:POPG vesicles (ratio 3:1, black) were incubated with peptide concentrations of 0, 0.02, 0.04, 0.08, 0.16, 0.32, 0.64, 1.25, 2.5, 5, 10, and 20 μM in each A) hydrochloric acid-adjusted phosphate buffered saline (1X, pH 4.8) and B) phosphate buffered saline (1X, pH 7.4).
as §2
(§6) 5 mM ANTS (8-aminonaphthalene-1,3,6-trisulfonic acid, disodium salt) and 12.5 mM DPX (p-xylene-bis-pyridinium bromide) were entrapped in 0.1 μm diameter extruded vesicles with lipids. Gel filtration chromatography using a Sephadex G-100 (GE Healthcare Life Sciences Inc) was used to remove external free ANTS/DPX from LUVs with entrapped contents. LUVs were diluted to 0.5 mM and used to measure the leakage activity by addition of aliquots of peptides. Leakage was measured after 3 h incubation. 10% Triton was used as the positive control to measure the maximum leakage of the vesicle. Fluorescence emission spectra were recorded using excitation and emission wavelength of 350 nm and 510 nm for ANTS/DPX using a BioTek Synergy H1 Hybrid Multi-Mode Reader.
(§7) Table 4 illustrates peptide concentration-induced 50 ANTS/DPX liposome leakage. 0.5 mM POPC and 3POPC/1POPG vesicles were fixed and incubated with titrated peptide concentration (0, 0.02, 0.04, 0.08, 0.16, 0.32, 0.64, 1.25, 2.5, 5, 10, and 20 μM) each in phosphate buffered saline (1X, pH 7.4) and hydrochloric acid-adjusted phosphate buffered saline (1X, pH 4.8). The values are shown as lipid per peptide. IN-terminus is free, C-terminus: —W—NH2.

[7] = ANTS/DPX liposome leakage assay, POPC vesicles; format: biochemical; settings: 0.5 mM vesicles
Description: as §5, §2, §6, §7

[8] = system: HEK293T (human embryonic kidney cell); test: MTT cytotoxicity assay, HEK293T; format: cell-based; settings: 72 hr, MTT; read-out: IC50 HEK293T
[9] = system: U2OS (human bone osteosarcoma); test: MTT cytotoxicity assay, U2OS; format: cell-based; settings: 72 hr

Row | Sequence | IC50 [1] | Lipid Concentration-induced 50% Peptide Binding (L/P) POPC Vesicle [2] | IC50 [3] | Lipid Concentration-induced 50% Peptide Binding (L/P) 3POPC/1POPG Vesicle [4] | IC50 [5] | Peptide Concentration-induced 50% ANTS/DPX leakage at pH 4.8 (L/P) 3POPC/1POPG Vesicle [6] | Peptide Concentration-induced 50% ANTS/DPX leakage at pH 7.4 (L/P) 3POPC/1POPG Vesicle [6] | Peptide Concentration-induced 50% ANTS/DPX leakage at pH 4.8 (L/P) POPC Vesicle [7] | Peptide Concentration-induced 50% ANTS/DPX leakage at pH 7.4 (L/P) POPC Vesicle [7] | IC50 [8] | IC50 [9]
1 | GLLDLLKLLLHAAG [DKH] | 3.45 ± 0.07 µM | 10.00 L/P | 7.05 ± 0.21 µM | 0.46 L/P | 2.8 ± 0.28 µM | 58 L/P | 274 L/P | 41 L/P | 614 L/P | 6.15 ± 1.34 µM | 21.1 ± 3.01 µM
2 | GLLDLLKLLLKAAG [DKK] | 1.95 ± 0.35 µM | 2.75 L/P | 2.57 ± 0.52 µM | 6.88 L/P | 1.2 ± 0.14 µM | 227 L/P | 156 L/P | 47 L/P | 463 L/P | 3.4 ± 0.28 µM | 10.4 ± 1.7 µM
3 | GLLELLHLLLKAAG [EHK] | 1.35 ± 0.35 µM | 0.56 L/P | 3.6 ± 0.99 µM | 0.42 L/P | 0.71 ± 0.13 µM | 117 L/P | 505 L/P | 55 L/P | 981 L/P | 5.35 ± 0.07 µM | 25 µM
4 | GLLELLKLLLEAAG [EKE] | 1.8 ± 0.28 µM | 2.75 L/P | 8.8 µM | 1.63 L/P | 1.3 ± 0.14 µM | 438 L/P | 657 L/P | 75 L/P | 738 L/P | 5.15 ± 0.21 µM | 8 ± 0.71 µM
5 | GLLELLKLLLHAAG [EKH] | 2.75 ± 0.07 µM | 0.75 L/P | 7.9 ± 0.42 µM | 0.19 L/P | 2.18 ± 0.31 µM | 88 L/P | 365 L/P | 55 L/P | 608 L/P | 6.65 ± 1.34 µM | 23.8 ± 0.81 µM
6 | GLLELLKLLLKAAG [EKK] | 1.72 ± 0.21 µM | 1.50 L/P | 1.7 ± 0.11 µM | 0.63 L/P | 1.19 ± 0.4 µM | 219 L/P | 235 L/P | 60 L/P | 1095 L/P | 3.35 ± 0.49 µM | 12.2 ± 1.84 µM
7 | GLLHLLELLLEAAG [HEE] | 6.5 ± 0.71 µM | 0.58 L/P | 58 ± 41 µM | 0.50 L/P | 4.95 ± 0.49 µM | 122 L/P | 792 L/P | 100 L/P | 876 L/P | 10.2 ± 0.2 µM | 47.5 ± 11 µM
8 | GLLHLLHLLLKAAG [HHK] | 3.15 ± 0.07 µM | 0.68 L/P | 5.6 ± 0.14 µM | 0.20 L/P | 1.75 ± 0.21 µM | 111 L/P | 160 L/P | 149 L/P | 1133 L/P | 5.25 ± 1.48 µM | 12.7 ± 1.91 µM
9 | GLLHLLKLLLEAAG [HKE] | 2.7 ± 0.28 µM | 0.75 L/P | 7.6 ± 0.42 µM | 0.25 L/P | 1.9 ± 0.42 µM | 94 L/P | 365 L/P | 173 L/P | 692 L/P | 5.15 ± 0.64 µM | 16 ± 0.78 µM
10 | GLLHLLKLLLHAAG [HKH] | 3.45 ± 0.21 µM | 0.18 L/P | 6.1 µM | 0.38 L/P | 3.1 ± 0.57 µM | 47 L/P | 274 L/P | 193 L/P | 1077 L/P | 5.7 ± 0.99 µM | 18.9 ± 1.24 µM
